# Test results published in US20040176431A1, “Antiproliferative 2-(sulfo-phenyl)-aminothiazole derivatives and pharmaceutical compositions, and methods for their use” (Pfizer, Inc., priority 2003, published 2004).
# Target: T1, CDK4/cyclin D3 (Homo sapiens, UniProt P11802)
# T1 construct: made in house; host or cells: insect cells (baculovirus co-infection)
# Test: Inhibition of CDK4/Cyclin D retinoblastoma kinase activity;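 as to % Inhib CDK4/D @ 1 μM: relative to DMSO control wells without compound minus no-enzyme background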
# Assay type: biochemical
# Details: for inhibition at 0.1 µM / % Inhib CDK4/D @ 0.1 μM: test compound at 0.1 μM; for inhibition at 0.1 µM: read-out: % Inhib CDK4/D @ 0.1 μM; for inhibition at 1 µM / % Inhib CDK4/D @ 1 μM: test compound at 1 μM (head line shifted: 'mM' printed beside 'Structure'); for inhibition at 1 µM: read-out: % Inhib CDK4/D @ 1 μM; for inhibition at 0.03 µM / % Inhib CDK4/D @ 0.03: test compound at 0.03 (unit cell empty, head line shifted; μM); for inhibition at 0.03 µM: read-out: % Inhib CDK4/D @ 0.03
# Method in brief: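 Human CDK4 with truncated cyclin D3 (1-264) from baculovirus-infected insect cells, 5 nM, phosphorylating His-tagged Rb fragment (386-928) with 25 μM [32P/33P]ATP in pH 7.4 HEPES/MgCl2, 2% DMSO, 30° C., 20 min (60 min for tight binders). Filter capture, phosphorimager; apparent Ki from competitive or tight-binding competitive fits.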
# T1 sequence (P11802 whole entry): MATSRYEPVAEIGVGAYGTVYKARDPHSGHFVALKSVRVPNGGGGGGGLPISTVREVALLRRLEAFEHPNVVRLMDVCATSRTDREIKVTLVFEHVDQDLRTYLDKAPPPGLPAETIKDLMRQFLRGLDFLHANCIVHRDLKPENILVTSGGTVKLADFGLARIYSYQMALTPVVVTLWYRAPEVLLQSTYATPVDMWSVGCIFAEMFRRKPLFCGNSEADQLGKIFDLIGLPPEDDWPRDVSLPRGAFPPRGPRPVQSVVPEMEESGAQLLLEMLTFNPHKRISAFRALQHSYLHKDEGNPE
# T1 sequence (P30281 1-264 partner limits assumed): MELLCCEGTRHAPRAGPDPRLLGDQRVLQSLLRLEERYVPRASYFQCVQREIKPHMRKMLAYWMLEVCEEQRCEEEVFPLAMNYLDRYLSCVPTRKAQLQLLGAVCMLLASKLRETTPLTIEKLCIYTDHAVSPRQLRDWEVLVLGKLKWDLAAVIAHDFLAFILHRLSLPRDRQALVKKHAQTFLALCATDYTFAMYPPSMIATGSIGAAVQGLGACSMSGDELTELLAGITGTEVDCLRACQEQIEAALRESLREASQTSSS
inhibition at 0.1 µM,inhibition at 1 µM,inhibition at 0.03 µM,% Inhib CDK4/D @ 1 μM,% Inhib CDK4/D @ 0.03,% Inhib CDK4/D @ 0.1 μM,Compound
53%,77.6%,17%,–,–,–,CN1CCCC1CC[S+]([O-])c1cccc(Nc2nc(N)c(C(=O)c3c(Cl)cccc3Cl)s2)c1 (stereo not drawn) [DD(139)]
52%,89.3%,32%,–,–,–,Nc1nc(Nc2ccc(SCC(O)CO)cc2)sc1C(=O)c1c(Cl)cccc1Cl (stereo not drawn) [DD(34)]
31%,–,–,40.5%,−7.7%,–,Nc1nc(Nc2ccc(S(=O)(=O)CCN3CCOCC3)cc2)sc1C(=O)c1c(Cl)cccc1Cl [DD(199)]
36%,66.8%,-3.5%,–,–,–,COc1cccc(C[S+]([O-])c2ccc(Nc3nc(N)c(C(=O)c4c(Cl)cccc4Cl)s3)cc2)c1 (stereo not drawn) [DD(97)]
25%,–,–,33.4%,−21%,–,CC(C)CCCS(=O)(=O)c1ccc(Nc2nc(N)c(C(=O)c3c(Cl)cccc3Cl)s2)cc1 [DD(190)]
21%,45.4%,-12%,–,–,–,Nc1nc(Nc2ccc([S+]([O-])CC3CCCO3)cc2)sc1C(=O)c1c(Cl)cccc1Cl (stereo not drawn) [DD(98)]
19%,54.2%,12%,–,–,–,Nc1nc(Nc2cccc(SCC3CNC(=O)O3)c2)sc1C(=O)c1c(Cl)cccc1Cl (stereo not drawn) [DD(49)]
29%,66.5%,18%,–,–,–,Nc1nc(Nc2cccc(SCc3ccncc3)c2)sc1C(=O)c1c(Cl)cccc1Cl [DD(75)]
16%,5.3%,93%,–,–,–,CC(C)CCCSc1cccc(Nc2nc(N)c(C(=O)c3c(Cl)cccc3Cl)s2)c1 [DD(70)]
28%,57.3%,21%,–,–,–,CN(C)CC[S+]([O-])c1cccc(Nc2nc(N)c(C(=O)c3c(Cl)cccc3Cl)s2)c1 (stereo not drawn) [DD(152)]
27%,35%,22%,–,–,–,CC(C)OC(=O)CC[S+]([O-])c1cccc(Nc2nc(N)c(C(=O)c3c(Cl)cccc3Cl)s2)c1 (stereo not drawn) [DD(158)]
–,–,–,26.3%,−19%,30%,CC1(CS(=O)(=O)c2ccc(Nc3nc(N)c(C(=O)c4c(Cl)cccc4Cl)s3)cc2)CO1 (stereo not drawn) [DD(220)]
-9%,24.6%,-14%,–,–,–,COc1cccc(CSc2cccc(Nc3nc(N)c(C(=O)c4c(Cl)cccc4Cl)s3)c2)c1 [DD(57)]
54%,79.6%,32%,–,–,–,Nc1nc(Nc2cccc(SCCCO)c2)sc1C(=O)c1c(Cl)cccc1Cl [DD(45)]
42%,46.2%,2.1%,–,–,–,CCOC(=O)CC[S+]([O-])c1ccc(Nc2nc(N)c(C(=O)c3c(Cl)cccc3Cl)s2)cc1 (stereo not drawn) [DD(102)]
17%,–,–,14.5%,−11%,–,CC(C)CCS(=O)(=O)c1ccc(Nc2nc(N)c(C(=O)c3c(Cl)cccc3Cl)s2)cc1 [DD(173)]
–,9.1%,–,–,−9.2%,−7%,CCN(CC)C(=O)CS(=O)(=O)c1ccc(Nc2nc(N)c(C(=O)c3c(Cl)cccc3Cl)s2)cc1 [DD(161)]
-4%,72.3%,-3.3%,–,–,–,Cc1noc(C)c1C[S+]([O-])c1ccc(Nc2nc(N)c(C(=O)c3c(Cl)cccc3Cl)s2)cc1 (stereo not drawn) [DD(82)]
21%,64.7%,8.1%,–,–,–,CCOCCSc1ccc(Nc2nc(N)c(C(=O)c3c(Cl)cccc3Cl)s2)cc1 [DD(33)]
45%,68.5%,6.3%,–,–,–,Nc1nc(Nc2ccc([S+]([O-])Cc3ccncc3)cc2)sc1C(=O)c1c(Cl)cccc1Cl (stereo not drawn) [DD(115)]
30%,59.7%,15%,–,–,–,CC(C)CCOC(=O)CSc1ccc(Nc2nc(N)c(C(=O)c3c(Cl)cccc3Cl)s2)cc1 [DD(31)]
–,–,–,47.3%,−11%,24%,C=CCCS(=O)(=O)c1ccc(Nc2nc(N)c(C(=O)c3c(Cl)cccc3Cl)s2)cc1 [DD(206)]
24%,–,–,24.9%,−26%,–,Nc1nc(Nc2ccc(S(=O)(=O)CC3CO3)cc2)sc1C(=O)c1c(Cl)cccc1Cl (stereo not drawn) [DD(172)]
27%,33.3%,-1.8%,–,–,–,CC(C)CCOC(=O)CS(=O)(=O)c1ccc(N(C)c2nc(N)c(C(=O)c3c(Cl)cccc3Cl)s2)cc1 [DD(231)]
–,30.7%,–,–,8.3%,7.8%,Nc1nc(Nc2ccc(S(=O)(=O)Cc3ncon3)cc2)sc1C(=O)c1c(Cl)cccc1Cl [DD(168)]

inhibition at 0.1 µM,inhibition at 1 µM,inhibition at 0.03 µM,% Inhib CDK4/D @ 1 μM,% Inhib CDK4/D @ 0.03,% Inhib CDK4/D @ 0.1 μM,Compound
–,–,–,36.4%,44%,33%,Nc1nc(Nc2ccc(S(=O)(=O)CC3CNC(=O)O3)cc2)sc1C(=O)c1c(Cl)cccc1Cl (stereo not drawn) [DD(169)]
40%,85.2%,21%,–,–,–,Nc1nc(Nc2ccc(SCCCO)cc2)sc1C(=O)c1c(Cl)cccc1Cl [DD(5)]
34%,77.1%,-5.6%,–,–,–,CN1CCCC1CC[S+]([O-])c1ccc(Nc2nc(N)c(C(=O)c3c(Cl)cccc3Cl)s2)cc1 (stereo not drawn) [DD(99)]
26%,17.6%,3.7%,–,–,–,CN(C)CCS(=O)(=O)c1ccc(Nc2nc(N)c(C(=O)c3c(Cl)cccc3Cl)s2)cc1 [DD(232)]
52%,77.4%,25%,–,–,–,NC(=O)CCSc1cccc(Nc2nc(N)c(C(=O)c3c(Cl)cccc3Cl)s2)c1 [DD(68)]
28%,43.1%,7.5%,–,–,–,C=CCC[S+]([O-])c1cccc(Nc2nc(N)c(C(=O)c3c(Cl)cccc3Cl)s2)c1 (stereo not drawn) [DD(126)]
–,–,–,10.3%,3.5%,36%,CCN(CC)C(=O)CS(=O)(=O)c1ccc(Nc2nc(N)c(C(=O)c3c(Cl)cccc3Cl)s2)cc1 [DD(201)]
38%,39.6%,19%,–,–,–,CN1CCCC(C[S+]([O-])c2cccc(Nc3nc(N)c(C(=O)c4c(Cl)cccc4Cl)s3)c2)C1 (stereo not drawn) [DD(147)]
9.9%,70.6%,10%,–,–,–,Nc1nc(Nc2ccc(SCC3CCCO3)cc2)sc1C(=O)c1c(Cl)cccc1Cl (stereo not drawn) [DD(18)]
–,–,–,4.9%,−15%,25%,Nc1nc(Nc2ccc(S(=O)(=O)CC(=O)Nc3ccccc3)cc2)sc1C(=O)c1c(Cl)cccc1Cl [DD(215)]
19%,72%,3.9%,–,–,–,Nc1nc(Nc2ccc(SCC3CO3)cc2)sc1C(=O)c1c(Cl)cccc1Cl (stereo not drawn) [DD(12)]
41%,80%,18%,–,–,–,COCCSc1ccc(Nc2nc(N)c(C(=O)c3c(Cl)cccc3Cl)s2)cc1 [DD(14)]
–,–,–,11.7%,−11%,35%,CC(C)OC(=O)CS(=O)(=O)c1ccc(Nc2nc(N)c(C(=O)c3c(Cl)cccc3Cl)s2)cc1 [DD(223)]
7.3%,62.9%,20%,–,–,–,Nc1nc(Nc2cccc(SCCN3CCCC3)c2)sc1C(=O)c1c(Cl)cccc1Cl [DD(47)]
10%,80.3%,24%,–,–,–,CN(C)CCCSc1cccc(Nc2nc(N)c(C(=O)c3c(Cl)cccc3Cl)s2)c1 [DD(50)]
9.2%,34.3%,16%,–,–,–,CC(C)CCOC(=O)C[S+]([O-])c1cccc(Nc2nc(N)c(C(=O)c3c(Cl)cccc3Cl)s2)c1 (stereo not drawn) [DD(151)]
46%,77.9%,16%,–,–,–,Nc1nc(Nc2ccc([S+]([O-])CC(O)CO)cc2)sc1C(=O)c1c(Cl)cccc1Cl (stereo not drawn) [DD(114)]
39%,80.1%,22%,–,–,–,CC1(CSc2cccc(Nc3nc(N)c(C(=O)c4c(Cl)cccc4Cl)s3)c2)CO1 (stereo not drawn) [DD(60)]
7%,51.1%,6.5%,–,–,–,CCCSc1cccc(Nc2nc(N)c(C(=O)c3c(Cl)cccc3Cl)s2)c1 [DD(65)]
9.1%,56.2%,8.1%,–,–,–,CCOC(=O)CCSc1ccc(Nc2nc(N)c(C(=O)c3c(Cl)cccc3Cl)s2)cc1 [DD(22)]
67%,85.5%,50%,–,–,–,NC(=O)CSc1ccc(Nc2nc(N)c(C(=O)c3c(Cl)cccc3Cl)s2)cc1 [DD(21)]
–,16.6%,–,–,−27%,16%,Nc1nc(Nc2ccc(S(=O)(=O)CC3CCCO3)cc2)sc1C(=O)c1c(Cl)cccc1Cl (stereo not drawn) [DD(178)]
42%,51.9%,16%,–,–,–,Nc1nc(Nc2cccc([S+]([O-])CC(=O)Nc3ccccc3)c2)sc1C(=O)c1c(Cl)cccc1Cl (stereo not drawn) [DD(135)]
10%,58.7%,-2.6%,–,–,–,CN1CCCC(CSc2ccc(Nc3nc(N)c(C(=O)c4c(Cl)cccc4Cl)s3)cc2)C1 (stereo not drawn) [DD(27)]
